Legend:
[1] = tested on: NIH:OVCAR-3 cells; experiment: In vitro irradiation survival (clonogenic), monolayer; format: cell-based, human; details: OVCAR-3 monolayer
Experimental: (§1) In vitro studies were carried out using three well known cell lines, the cells from which were exposed to radiation from: (1) an X-ray source; (2) P-32 chromic phosphate; and (3) Bi-212 chloride. The three cell lines that were used are V-79, which is a Chinese hamster lung fibroblast, Ehrlich-Lettre Ascites carcinoma (ATCC CCL 77), which is an ascites producing -tumor, and NIH:OVCAR-3 (ATCC HTB 161), which is a human ovarian adenocarcinoma. These well known cell lines are predictive of what happens in vivo. The cells were grown as monolayers and into spheroid formations and subsequently irradiated, as described herein.
(§2) The V-79 cells were maintained under exponential growth conditions in minimal essential medium (MEM) supplemented with 10 percent fetal bovine serum. The Ehrlich-Lettre Ascites carcinoma cells were maintained in 90 percent NCTC 109 supplemented with 10 percent fetal bovine serum. The NIH:OVCAR-3 cells were maintained in RPMI 1640 and 10 percent fetal bovine serum.
(§3) Cells from each of the cell lines were irradiated by subjecting the cells to X-ray radiation, P-32, and Bi-212. The X-ray source that was used is a General Electric 250 kvp Maxitron, 26 […] (mA) (HVL 1.5 mm Cu) operated at a dose rate of 1.11 Greys per minute (Gy/min). The cells, in both monolayer and spheroid form were exposed at room temperature and then immediately plated for survival.
(§4) Cells in both monolayer and spheroid were exposed to P-32 chromic phosphate. The radiation dose to each sample was calculated as: […]
(§5) After exposure, the cells were washed in phosphate-buffered saline (PBS) and immediately plated for survival.
(§6) The cell lines were also irradiated using Bi-212. Bismuth-212 was eluted from a generator as described in the aforementioned patent to Atcher et al., which was a cation-exchange column supporting Ra-224, with 1 ml of 0.15 N HI, and the generator was purged with 2 ml of distilled deionized water. […] The filter was purged with 1 ml of distilled deionized water, and the radioactivity was assayed using a calibrated 3×3-in. […]
(§7) Cells were exposed over a period of four hours. The dose (D) per microCurie was calculated and corrected for decay as follows: [formula] where V=volume in milliliters, and […]
(§8) Following plating, survival measurements were taken for each of the irradiated cell samples. […] The plates were then stained with crystal violet and colonies greater than 50 cells were scored. The surviving fraction was then determined.
(§9) Intrinsic radiosensitivity (Do) was calculated from the survival curves. […] Relative biological effectiveness (RBE) was determined as the ratio of the absorbed dose of X-ray to that of alpha radiation to produce the same degree of biological effect.

[2] = tested on: V-79 cells; experiment: as above; format: cell-based, Chinese hamster; details: V-79 monolayer
Experimental: as §1, §2, §3, §4, §5, §6, §7, §8, §9

[3] = tested on: NIH:OVCAR-3 cells (spheroids); experiment: In vitro irradiation survival, spheroids; format: cell-based, human; details: OVCAR-3 spheroids
Experimental: as §1, §2
To initiate the formation of the spheroids, cells at a concentration of about 500,000 cells per flask were seeded onto petri dishes base-cooked with 1 percent agar MEM without serum. After spheroids having a size of about 20 micrometers (μm) formed, the spheroids were transferred to spinner bottles and maintained for two to three weeks at a temperature of 37° C. in a CO2 incubator until they grew to 10 to 1000 μm. Prior to irradiation, the spheroids were sized and separated using a spheroid separation column.
as §3, §4, §5
The cell lines were also irradiated using Bi-212. […] The filter was purged with 1 ml of distilled deionized water, and the radioactivity was assayed using a calibrated 3×3-in. […]
as §7, §8
Intrinsic radiosensitivity (Do) was calculated from the survival curves. […]

[4] = tested on: microscopic disease (ovarian carcinoma); details: stage I and stage II patients; cited from earlier work
[5] = tested on: microscopic carcinoma; details: in vivo; cited from earlier work
[6] = dose increment reducing survival to 37 percent

Structure (SMILES)	D0 (intrinsic radiosensitivity) [1, 6] [Gy]	Relative biological effectiveness (RBE) ([1]; relative to X-ray)	D0 (intrinsic radiosensitivity) [2, 6] [Gy]	Relative biological effectiveness (RBE) ([2]; relative to X-ray)	D0 (intrinsic radiosensitivity) ([3]; dose to 37 percent survival) [Gy]	Relative biological effectiveness (RBE) ([3]; relative to X-ray)	Five-year survival rate [4] [%]	Treatment and eradication of microscopic carcinoma [5]
O=[32P]([O-])([O-])[O-].[Cr+3] [P-32 chromic phosphate, chromic phosphate (P-32), reference compound]	1.40	1.43	1.25	1.63	1.1	1.07	81	
[212Pb] [Pb-212, lead-212]								effective in the treatment and eradication of microscopic carcinoma
[211At] [At-211, astatine-211]								effective in the treatment and eradication of microscopic carcinoma
